From patent US5723666A, “Oxime substituted tetrahydronaphthalene derivatives having retinoid and/or retinoid antagonist-like biological activity” (Allergan, priority 1996, dated 1998)
pKd: −log10 of the molar value.

Target: T1, RARα (Homo sapiens, UniProt P10276)
T1 sequence (P10276 1-462): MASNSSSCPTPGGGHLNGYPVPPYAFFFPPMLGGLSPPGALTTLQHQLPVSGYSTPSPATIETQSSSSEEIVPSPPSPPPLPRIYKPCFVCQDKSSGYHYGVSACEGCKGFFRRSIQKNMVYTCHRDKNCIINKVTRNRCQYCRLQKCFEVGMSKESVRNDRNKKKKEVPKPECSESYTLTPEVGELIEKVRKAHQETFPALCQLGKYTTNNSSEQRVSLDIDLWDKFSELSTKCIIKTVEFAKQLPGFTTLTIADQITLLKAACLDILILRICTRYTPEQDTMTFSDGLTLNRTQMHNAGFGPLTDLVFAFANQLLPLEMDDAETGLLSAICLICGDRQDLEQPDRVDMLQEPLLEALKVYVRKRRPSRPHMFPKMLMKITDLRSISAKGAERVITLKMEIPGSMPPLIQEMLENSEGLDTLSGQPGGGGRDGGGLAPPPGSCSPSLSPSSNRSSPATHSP
Assay: Ligand Binding Assay, RARα
Description: Other assays described below, measure the ability of the compounds of the present invention to bind to, and/or activate various retinoid receptor subtypes. When in these assays a compound binds to a given receptor subtype and activates the transcription of a reporter gene through that subtype, then the compound is considered an agonist of that receptor subtype. […] In the below described assays the ability of the compounds to bind to RARα, RARβ, RARγ, RXRα, RXRβ and RXRγ receptors, and the ability or inability of the compounds to activate transcription of a reporter gene through these receptor subtypes can be tested.
A holoreceptor transactivation assay and a ligand binding assay which measure the antagonist/agonist like activity of the compounds of the invention, or their ability to bind to the several retinoid receptor subtypes, respectively, are described in published PCT Application No. WO WO93/11755 (particularly on pages 30-33 and 37-41) published on Jun. 24, 1993, the specification of which is also incorporated herein by reference. A description of the holoreceptor transactivation assay is also provided below.
CV1 cells (5,000 cells/well) were transfected with an RAR, reporter plasmid MTV-TREp-LUC (50 ng) along with one of the RAR expression vectors (10 ng) in an automated 96-well format by the calcium phosphate procedure of Heyman et al. Cell 68, 397-406, (1992). […]

Structure (SMILES): CO/N=C1\CCC(C)(C)c2ccc(/N=N/c3ccc(C(=O)O)cc3)cc21 [Compound D4]
- pKd: 6.00
